Earlier results in paper PMC3845493 (Molecular pharmaceutics, 2013).

Sequence: PARVGLGITTVLTMTTQSSGSRA [Peptide M2GlyR]
- Aggregation in aqueous solutions: tendency to aggregate in aqueous solutions
